Measured values taken from patent US20140322704A1, “Hepatitis Virus Culture Systems Using Stem Cell-Derived Human Hepatocyte-Like Cells and Their Methods of Use” (The Florida State University Research Foundation, Inc., priority 2011, published 2014).

Assays:
Format in all cases: cell-based
JFH-1 based HCVcc = experiment: HCVcc infection of DHHs in the presence of HCV inhibitors (FIG. 2D)
Description: FIG. 2 depicts the results of experiments assessing infection of DHHs derived from hESCs and iPSCs. (A) Detection of HCV proteins in DHHs infected with JFH-1 based HCVcc. DHHs were inoculated with three different preparations of HCVcc at day 13 post-differentiation and cell lysates collected at day 21 for western blot analysis. The anti-NS3 antibody also recognized a non-specific band in the mock infected sample. (B) Immunostaining of infected DHHs. A JFH variant containing a FLAG tag in the NS5A protein was used to infect either Huh-7.5 or DHHs and staining was done with an anti-FLAG antibody. (C) Infection of Huh-7.5 and DHHs as measured by the HCV-dependent fluorescence relocalization assay. Reporter-transduced cells were infected with HCVcc and the cells were fixed for immunofluorescence analysis 72 hours post-infection. For the RFP-NLS-IPS expressing cells, HCV infection leads to complete nuclear translocation of the RFP; for the EGFP-IPS cells, HCV infection leads to redistribution of green fluorescence from a reticulate cytoplasmic pattern to a diffused pattern with a nuclear enrichment. […] The following inhibitors were included in the infection experiments. IFN: interferon-α, 80 units/ml; AR3A: anti-E2 neutralizing antibody, 1 μg/ml; ITX: ITX5061, an SR-BI inhibitor, 1 μM. (E) Comparison of HCVcc infection levels in DHHs and PHHs. PHHs were infected for 8 days to keep the infected days the same between the two cell types (DHHs were infected at day 13 and the lysed at day 21). (F) Infection of DHHs derived from an iPSC line. Differentiation and infection of iPS.K3 were performed as described for H9-derived DHHs (FIG. 1 and FIG. 2A).
All JFH-1 based HCVcc (Mut4-6, SAV, Jc1/GLuc2A, and DEYN-Jc1/GLuc2A) were produced in Huh-7.5 cells as previously described (2005, Lindenbach, et al., Science 309:623-626). Genotype 1b HCVser was obtained from a commercial supplier (Teragenix, Ft. Lauderdale, Fla.). All infections were done by incubating virus inoculum with cells for 6-9 hours before the cells were washed and changed into the appropriate medium for the specific cell type and differentiation stage. For the time course of DHHs permissiveness, infection of each time point was allowed to proceed for exactly 48 hours before cell harvesting and western blotting. Immunofluorescence analysis of HCV receptors and intracellular antigens. Cells were fixed in 4% paraformaldehyde in phosphate-buffered saline (PBS) at room temperature for 10 minutes and blocked with PBGB (PBS containing 10% normal goat serum, and 1% bovine serum albumin (BSA)) at room temperature for 2 hours. Cells were incubated with primary antibodies (anti-CD81, anti-SR-B1, anti-claudin 1 and anti-occludin, diluted in PBG at 1:200) at 4° C. overnight or 2 hours at room temperature. […]

HCVcc = experiment: Secretion of HCV core antigen into culture medium by HCVcc-infected DHHs, core ELISA (FIG. 3B); details: IFN-α 50 units/ml; 48 hours after infection; H9-derived DHHs
Procedure: FIG. 3 depicts the results of experiments showing that DHHs support persistent infection and secrete infectious HCV particles. (A) Continuous replication of HCVcc in DHHs. Day-10 DHHs were infected with Jc1/GLuc2A for 9 hours before the inoculum was removed and the cells were changed into medium E with or without a cyclophilin inhibitor CsA at 1 μg/ml. Culture supernatants were collected daily to measure luciferase activity. The culture media was replaced with thorough washing every 48 hours and CsA was included every time fresh media was used. Error bars represent standard deviation from triplicate experiments. (B) Secretion of HCV core antigen into the culture medium by infected DHHs. […]
To quantify miR-122 levels, TRIzol extracted RNA samples were reverse transcribed using TaqMan MicroRNA Reverse Transcription kit (Applied Biosystems) and the resulting cDNA served as templates for Real-Time PCR analysis using TaqMan MicroRNA Assay for miR-122 (Applied Biosystems). […]
To verify continuous viral replication during the infection period, the secretion of Gaussia luciferase into the culture media by the DHHs infected with the GLuc reporter virus was monitored using a procedure previously used to monitor persistent HCV infection in microscale PHHs (2010, Floss et al., Proc Natl Acad Sci USA 107:3141-3145). […]

genotype 1b HCVser = experiment: Infection of DHHs by patient serum-derived HCV, western blotting (FIG. 7A); details: IFN-α 50 units/ml; genotype 1b patient serum; 48 hours
Description: FIG. 7 depicts the results of experiments assessing the direct infection of DHHs by HCV derived from patient serum. (A) Detection of IFN-sensitive HCVser infection by western blotting IFN-α was included in the medium at 50 units/ml when indicated. (B) Visualization of single cell infection events by HCVser using the HCV-dependent fluorescence relocalization assay. Arrows indicate individual cells infected with HCVser and showing nuclear translocation of the RFP. (C) Secretion of HCV core antigen into culture supernatant by HCVser-infected DHHs. Values for core levels in supernatants collected 48 hours post-infection were plotted. IFN-α was included in the medium at 50 units/ml when indicated. Error bars represent standard deviation of replicate experiments. (D) HCVser preferentially infected DHHs over Huh-7.5 cells. […]
Although robust infection of PHHs by HCVcc has been reported (2010, Podevin et al., Gastroenterology 1355-1364; 2010, Ploss et al., Proc Natl Acad Sci USA 107:3141-3145; 2010, Banaudha et al., Hepatology 51:1922-1932), direct infection by HCV derived from patient serum (HCVser) remained inefficient (2010, Podevin et al., Gastroenterology. 139:1355-1364; 1998, Fournier et al., J Gen Virol. 79:2367-2374). […] In addition, secretion of HCV core antigen was detected in the supernatant of the DHHs infected by HCVser (FIG. 7C).

COc1c(NC(=O)C(=O)c2ccc(OCCN3CCOCC3)c3ccccc23)cc(C(C)(C)C)cc1NS(C)(=O)=O [ITX5061]
HCV infection in DHHs (JFH-1 based HCVcc; ITX5061 1 μM): abolished HCV infection
HCV infection in DHHs (JFH-1 based HCVcc; ITX5061 1 μM, listed as small molecule compound that inhibits the scavenger receptor class B type I (SR-): efficiently blocked infection

interferon-α [IFN-α]
HCV core antigen in the supernatant of infected cells (HCVcc): not in that of the similarly infected but IFN-treated cells
HCV infection in DHHs (JFH-1 based HCVcc; interferon-α 80 units/ml): efficiently blocked infection
HCV infection in DHHs (JFH-1 based HCVcc; interferon-α 80 units/ml, listed as IFN): abolished HCV infection
HCVser infection of DHHs detected by western blotting (genotype 1b HCVser): sensitive to IFN inhibition
